Experimental data as given in patent publication US11767295B2, “Isoindole derivative” (TIANJIN HEMAY PHARMACEUTICAL CO., LTD., priority 2018, dated 2023).

Columns and labels:
Type in all cases: in vivo
[1] = system: DNCB-induced atopic dermatitis in Balb/c mice; experiment: Efficacy evaluation test of DNCB-induced atopic dermatitis in Balb/c mice model (Biological Example 1); conditions: BID × 10; for Inhibitory Rate of Ear Swelling Degree / Inhibitory Rate of Ear Thickness / Ear Thickness Change, Day 1 / Ear Thickness Change, Day 10 / Weight Changes of Animals, Day 10 / Ear Thickness Change, Day 17 / Weight Changes of Animals, Day 17 / Ear Thickness Change, Day 18 / Weight Changes of Animals, Day 18 / Ear Thickness / Ear Swelling Degree / IgE Concentration / Inhibitory Rate of IgE Concentration: 1 mg/mouse on ear; for Inhibitory Rate of Ear Swelling Degree / Inhibitory Rate of Ear Thickness / Ear Thickness / Ear Swelling Degree / IgE Concentration / Inhibitory Rate of IgE Concentration: 18th day; for Inhibitory Rate of Ear Swelling Degree / Inhibitory Rate of Ear Thickness / Inhibitory Rate of IgE Concentration: vs model and blank control; for Weight Changes of Animals, Day 1 / Inhibitory Rate of Ear Thickness / Ear Thickness Change, Day 1 / Ear Thickness Change, Day 10 / Weight Changes of Animals, Day 10 / Ear Thickness Change, Day 17 / Weight Changes of Animals, Day 17 / Ear Thickness Change, Day 18 / Weight Changes of Animals, Day 18 / Ear Thickness: Balb/c mice; for Weight Changes of Animals, Day 1: 1 mg/mouse (50 mg/mL, 20 μL) on ear; for Weight Changes of Animals, Day 1 / Ear Thickness Change, Day 1 / Ear Thickness Change, Day 10 / Weight Changes of Animals, Day 10 / Ear Thickness Change, Day 17 / Weight Changes of Animals, Day 17 / Ear Thickness Change, Day 18 / Weight Changes of Animals, Day 18: Mean ± S.D.; for Ear Thickness: Table 4; for Ear Swelling Degree: right minus left ear piece weight (8 mm punch); for IgE Concentration / Inhibitory Rate of IgE Concentration: serum
Description: 60 healthy male SPF Balb/c mice, each of which the body weight was 19-21 g, were randomly divided into 6 groups by body weight. There were 10 mice in each group.
Before the test, the hair around the right ear of the mouse was removed to reduce the interference in the drug adhesion to the hair.
The start of the test was recorded as Day 1. The specific time for measuring ear thickness was slightly adjusted based on FIG. 1. After the end of the 18th day of the test, blood was taken from each animal to detect the concentration of immunoglobulin (IgE) in the serum (in accordance with the kit instructions). Both ears of the animal were cut off. Ear pieces were cut by an 8 mm punch at the fixed position of the ears and weighed. Differences in the swelling degrees of two ears were calculated.
The changes in mouse ear thickness and the ear weights of the same area and the IgE concentrations in the serum among different groups on the 18th day were analyzed and compared statistically with One-Way Anova in SPSS 17, respectively. The G test method was used to delete outliers. p<0.05 indicated there were statistical differences. Ear swelling degree (mg)=right ear weight (mg)−left ear weight (mg); Ear thickness change (mm)=right ear thickness (mm)−left ear thickness (mm); Inhibitory rate of ear swelling degree (%)=1−(ear swelling degree of drug administration group−ear swelling degree of blank control group)/(ear swelling degree of model control group−ear swelling degree of blank control group)×100%; Inhibitory rate of ear thickness change (%)=1−(ear thickness change of drug administration group−ear thickness change of blank control group)/(ear thickness change of model control group−ear thickness change of blank control group)×100%; Inhibitory rate of IgE (%)=1−(IgE concentration in administration group−IgE concentration in blank control group)/(IgE concentration in model control group−IgE concentration in blank control group)×100%.

[2] = system: Phorbol ester (TPA)-induced ear swelling in mice; experiment: Inhibition of phorbol ester (TPA)-induced ear swelling in mice (Biological Example 4); conditions: ICR mice, 30 mg/mL in acetone, 40 μL in 2 administrations on right ear; 5 hours after TPA modeling
Description: 40 male ICR mice were selected and divided into 5 groups. There were 8 mice in each group.
(§1) Before the test, the animals were grouped and the hair around the right ear of the mice was removed.
20 μL of respective drug was applied to the animals in each test group (a blank solvent was applied to the model control group). Modeling and induction were carried out after 1 h 10 min. Except for the blank group, 20 μL of TPA at a concentration of 125 μg/mL were applied to the right ears of the animals for induction. After induction for 10 minutes, 20 μL of respective drug was applied to the right ears of the animals in each test group (a blank solvent was applied to the model control group).
(§2) After modeling for 5 hours, ear pieces of both sides on the same location of animals in each group were taken with a punch and weighed to calculate the ear swelling degree, ear swelling rate and inhibitory rate.
(§3) The ear swelling degree and ear swelling rate after modeling and administration for 5 hours were analyzed and tested with One-Way ANOVA multiple-group test index in SPSS17.0. P<0.05 indicated there were statistical differences. Ear swelling degree (mg)=right ear weight (mg)−left ear weight (mg); Ear swelling rate (%)=(right ear weight−left ear weight)/left ear weight×100%; Inhibitory rate of ear swelling degree (%)=1−(ear swelling degree of drug administration group−ear swelling degree of blank control group)/(ear swelling degree of model control group−ear swelling degree of blank control group)×100%.

[3] = system: Phorbol ester (TPA)-induced ear swelling in mice; experiment: Inhibition of phorbol ester (TPA)-induced ear swelling in mice (Biological Example 5); conditions: ICR mice, 5 hours after TPA modeling
Description: (§4) 72 male ICR mice were selected and divided into 9 groups. There were 8 mice in each group.
as §1
(§5) 20 μL of respective drug was applied to the animals in each test group (a blank solvent was applied to the model control group). Modeling and induction were carried out after 1 h 10 min. Except for the blank group, 20 μL of TPA at a concentration of 125 μg/mL were applied to the right ears of the animals for induction. After induction for 10 minutes, 20 μL of respective drug were applied to the right ears of the animals in each test group (a blank solvent was applied to the model control group).
as §2, §3

ICR mice = experiment: Acute toxicity test of single gavage in mice (Biological Example 9); conditions: ICR mice, single gavage 2000 mg/Kg; for Clinical observation: appearance, breath, behavior, reflex and defecation: male and female, observed 15 days; for Dissection and general observation of each organ / Organ indexes: end of the test
Description: 30 healthy ICR mice of SPF grade were randomly divided into 5 groups according to the gender segment, in which 15 mice were male and 15 mice were female. There were 3 mice/gender/group. There were 6 mice in each group, in which 3 mice were male and 3 mice were female.
Single administration by gavage was carried out. The symptoms and responses of all the animals were observed after the administration and were recorded faithfully. The test was observed continuously for 15 days. The symptoms of the animals were recorded. After the test, the tissues and organs of all the animals were weighed, observed and recorded. The specimens were kept.
Body weight, appearance, breath, behavior, reflex and defecation.

[4] = system: Phorbol ester (TPA)-induced ear swelling in mice; experiment: Inhibition of phorbol ester (TPA)-induced ear swelling in mice (Biological Example 6); conditions: ICR mice, 5 hours after TPA modeling
Description: as §4, §1, §5
After modeling for 5 hours, ear pieces of both sides at the same location of animals in each group were taken with a punch and weighed to calculate the ear swelling degree, ear swelling rate and inhibitory rate.
as §3, with “P<0.05 indicated there were statistical differences.” left out, “(%)=1−(swelling” for “(%)=1−(ear swelling”, “group−swelling” for “group−ear swelling”, “group)/(swelling” for “group)/(ear swelling”

[5] = 2 mg/mouse on right ear, (right−left)/left ear weight
[6] = 2 mg/mouse on right ear, vs model and blank control
[7] = 50 mg/mL in acetone, 40 μL in 2 administrations (2 mg/mouse)

## CCOc1cc(C(CC(=O)OC)N2C(=O)c3cccc(NC(C)=O)c3C2=O)ccc1OC (stereo not drawn) [Example 1, methyl 3-(4-acetamido-1,3-dioxoisoindolin-2-yl)-3-(3-ethoxy-4-methoxyphenyl)propionate]
[1]
  Inhibitory Rate of Ear Swelling Degree: 21.3%
  Weight Changes of Animals, Day 1: 21.0 ± 0.8 g
  Inhibitory Rate of Ear Thickness: 22.5%
  Ear Thickness Change, Day 1: 0.22 ± 0.02 mm
  Ear Thickness Change, Day 10: 0.47 ± 0.02 mm
  Weight Changes of Animals, Day 10: 22.4 ± 0.8 g
  Ear Thickness Change, Day 17: 0.60 ± 0.08 mm
  Weight Changes of Animals, Day 17: 21.9 ± 1.1 g
  Ear Thickness Change, Day 18: 0.64 ± 0.07 mm
  Weight Changes of Animals, Day 18: 22.0 ± 1.3 g
  Ear Thickness: 0.64 ± 0.07 mm
  Ear Swelling Degree: 19.9 ± 5.1 mg
  IgE Concentration: 6631.4 ± 1431.1 ng/mL
  Inhibitory Rate of IgE Concentration: 25.6%
[2]
  Inhibitory Rate of Ear Swelling Degree: 60.1%

## CCCOC(=O)CC(c1ccc(OC)c(OCC)c1)N1C(=O)c2cccc(NC(C)=O)c2C1=O (stereo not drawn) [Example 11, propyl 3-(4-acetamido-1,3-dioxoisoindolin-2-yl)-3-(3-ethoxy-4-methoxyphenyl)propionate]
[1]
  Inhibitory Rate of Ear Swelling Degree: 49.2%
  Weight Changes of Animals, Day 1: 20.3 ± 1.3 g
  Inhibitory Rate of Ear Thickness: 51.5%
  Ear Thickness Change, Day 1: 0.22 ± 0.01 mm
  Ear Thickness Change, Day 10: 0.33 ± 0.09 mm
  Weight Changes of Animals, Day 10: 21.6 ± 1.1 g
  Ear Thickness Change, Day 17: 0.35 ± 0.04 mm
  Weight Changes of Animals, Day 17: 21.2 ± 1.2 g
  Ear Thickness Change, Day 18: 0.48 ± 0.06 mm
  Weight Changes of Animals, Day 18: 21.1 ± 1.3 g
  Ear Thickness: 0.48 ± 0.06 mm
  Ear Swelling Degree: 12.8 ± 4.9 mg
  IgE Concentration: 5854.5 ± 2631.7 ng/mL
  Inhibitory Rate of IgE Concentration: 36.5%
[3]; [5]
  Ear Swelling Rate: 46.3 ± 35.7 %
[3]; [6]
  Inhibitory Rate of Ear Swelling Degree: 81.7%
[3]; [7]
  Ear Swelling Degree: 6.5 ± 5.0 mg
ICR mice
  Clinical observation: appearance, breath, behavior, reflex and defecation: No obvious abnormalities of appearance, breath, behavior,
  Dissection and general observation of each organ: No obvious abnormalities related to the compounds were
  Organ indexes: No obvious abnormalities of organ indexes were observed.

## CCOc1cc([C@@H](CC(=O)OC)N2C(=O)c3cccc(NC(C)=O)c3C2=O)ccc1OC [Example 9, methyl (R)-3-(4-acetamido-1,3-dioxoisoindolin-2-yl)-3-(3-ethoxy-4-methoxyphenyl)propionate]
[2]
  Inhibitory Rate of Ear Swelling Degree: 54.5%

## CCCOc1ccc(C(CC(=O)OC)N2C(=O)c3cccc(NC(C)=O)c3C2=O)cc1OCC (stereo not drawn) [Example 31, methyl 3-(4-acetamido-1,3-dioxoisoindolin-2-yl)-3-(3-ethoxy-4-propoxyphenyl)propionate]
[4]; [5]
  Ear Swelling Rate: 34.3 ± 14.9 %
[4]; [6]
  Inhibitory Rate of Ear Swelling Degree: 87.6%
[4]; [7]
  Ear Swelling Degree: 4.9 ± 2.0 mg
ICR mice
  Clinical observation: appearance, breath, behavior, reflex and defecation: No obvious abnormalities of appearance, breath, behavior,
  Dissection and general observation of each organ: No obvious abnormalities related to the compounds were
  Organ indexes: No obvious abnormalities of organ indexes were observed.
